Results reported in patent US6858638B2, “Substituted indazoles, compositions containing them, method of production and use” (Aventis Pharma S.A., priority 2002, dated 2005).
Structures can show the parent of a compound that is named as a salt.

Columns and labels:
[1] = target: T1, human IGF1R cytoplasmic domain (Homo sapiens, UniProt P08069); experiment: IGF1R autophosphorylation inhibition, time resolved fluorescence (HTRF) assay; type: biochemical; details: 10 μM; read-out: IGF1R % inhib at 10 μM
T1 construct: The human IGF1R cytoplasmic domain was cloned; made in house; host or cells: SF21 insect cells (baculovirus)
T1 sequence (P08069 960-1367 limits assumed): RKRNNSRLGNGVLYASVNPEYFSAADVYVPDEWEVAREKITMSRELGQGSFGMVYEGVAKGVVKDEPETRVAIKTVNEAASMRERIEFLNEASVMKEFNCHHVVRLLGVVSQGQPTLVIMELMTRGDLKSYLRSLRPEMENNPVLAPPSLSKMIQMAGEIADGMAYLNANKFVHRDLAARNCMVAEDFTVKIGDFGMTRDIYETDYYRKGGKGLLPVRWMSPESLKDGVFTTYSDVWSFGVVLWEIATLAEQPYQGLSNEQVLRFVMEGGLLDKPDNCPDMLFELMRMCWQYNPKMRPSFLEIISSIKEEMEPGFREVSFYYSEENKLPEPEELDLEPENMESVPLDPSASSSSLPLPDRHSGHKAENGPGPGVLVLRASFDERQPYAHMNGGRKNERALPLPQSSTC
In short: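 GST-tagged human IGF1R cytoplasmic domain from SF21 cells incubated with compound in 50 mM Hepes pH 7.5, 5 mM MnCl2, 50 mM NaCl, […] ATP. Autophosphorylation detected by HTRF (Eu-K anti-phosphotyrosine, XL665 anti-GST) after EDTA/KF stop; percentage inhibition versus no-compound control.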

[2] = target: T2, human FAK (Homo sapiens, UniProt Q05397); experiment: FAK autophosphorylation inhibition, time resolved fluorescence (HTRF) assay; type: biochemical; details: 10 μM (values without asterisk); read-out: FAK % inhib at 10 μM
T2 construct: The complete cDNA of human FAK; made in house; host or cells: baculovirus expression system (vector pFastBac HTc)
T2 sequence (Q05397 whole entry): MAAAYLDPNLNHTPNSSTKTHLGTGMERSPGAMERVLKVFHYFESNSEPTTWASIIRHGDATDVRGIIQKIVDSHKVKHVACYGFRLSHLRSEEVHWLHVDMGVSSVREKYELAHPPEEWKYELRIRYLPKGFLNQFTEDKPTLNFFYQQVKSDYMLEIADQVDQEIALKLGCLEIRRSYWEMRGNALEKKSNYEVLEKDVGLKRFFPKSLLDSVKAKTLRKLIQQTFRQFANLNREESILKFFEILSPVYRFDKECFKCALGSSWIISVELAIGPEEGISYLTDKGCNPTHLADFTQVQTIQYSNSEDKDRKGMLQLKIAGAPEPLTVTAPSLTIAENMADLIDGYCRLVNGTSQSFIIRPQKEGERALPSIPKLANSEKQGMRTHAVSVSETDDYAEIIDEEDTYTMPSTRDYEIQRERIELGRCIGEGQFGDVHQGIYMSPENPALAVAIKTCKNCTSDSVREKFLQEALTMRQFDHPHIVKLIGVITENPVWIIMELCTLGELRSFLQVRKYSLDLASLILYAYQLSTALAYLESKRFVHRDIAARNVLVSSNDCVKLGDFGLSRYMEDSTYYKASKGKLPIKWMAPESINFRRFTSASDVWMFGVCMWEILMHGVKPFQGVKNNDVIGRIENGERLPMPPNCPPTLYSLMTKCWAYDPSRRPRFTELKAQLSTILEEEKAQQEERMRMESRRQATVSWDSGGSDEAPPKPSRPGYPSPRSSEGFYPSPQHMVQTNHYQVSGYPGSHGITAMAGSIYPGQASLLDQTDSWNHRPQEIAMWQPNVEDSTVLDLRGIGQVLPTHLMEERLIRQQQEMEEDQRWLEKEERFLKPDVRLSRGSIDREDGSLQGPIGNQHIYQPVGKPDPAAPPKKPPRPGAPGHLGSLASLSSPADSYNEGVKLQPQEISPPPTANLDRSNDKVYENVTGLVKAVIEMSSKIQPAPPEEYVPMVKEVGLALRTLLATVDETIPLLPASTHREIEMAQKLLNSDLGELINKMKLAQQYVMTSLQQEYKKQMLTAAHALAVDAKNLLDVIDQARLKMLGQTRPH
In short: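 Autophosphorylation was detected by europium-cryptate anti-pTyr and XL665 anti-His energy transfer, percent inhibition from the 665/620 ratio relative to no-compound wells. Enzyme: His-FAK full length, 6.6 µg/ml, incubated 1 h at 37 °C, pH 7.2, 15 µM ATP.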

[3] = target: T3, Aurora2 kinase (Homo sapiens, UniProt O14965); experiment: Aurora2 kinase radioactivity scintillation assay using nickel chelate (NuMA substrate); type: biochemical; details: 10 μM; read-out: Aurora2 % inhib at 10 μM
T3 construct: A complete recombinant Aurora2 enzyme; His tag (N); made in house; host or cells: E. coli
T3 sequence (O14965 1-403): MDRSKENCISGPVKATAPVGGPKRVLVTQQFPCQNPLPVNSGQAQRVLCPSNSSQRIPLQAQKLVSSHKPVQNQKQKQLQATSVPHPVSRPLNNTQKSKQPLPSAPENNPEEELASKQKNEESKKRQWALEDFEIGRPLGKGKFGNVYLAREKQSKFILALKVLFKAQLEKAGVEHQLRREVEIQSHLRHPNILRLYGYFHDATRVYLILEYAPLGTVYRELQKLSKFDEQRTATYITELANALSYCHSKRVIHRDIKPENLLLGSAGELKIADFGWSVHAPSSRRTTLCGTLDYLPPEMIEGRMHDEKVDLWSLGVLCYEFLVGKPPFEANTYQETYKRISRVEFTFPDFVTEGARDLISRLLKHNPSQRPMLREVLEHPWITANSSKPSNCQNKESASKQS
In short: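 Read-out is 33P incorporation into His-NuMA (Q1687-H2101, 0.5 μM) captured on nickel chelate, after 30 min at 37 °C with 0.02 μM His-Aurora2 and 1 μM ATP. Expressed as percentage inhibition of uncompounded control activity, background subtracted.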

[4] = target: T4, human KDR enzyme (Homo sapiens, UniProt P35968); experiment: KDR substrate (PLCγ) phosphorylation, scintillation assay; type: biochemical; details: 10 μM; read-out: KDR % inhib at 10 μM
T4 construct: The cytoplasmic domain of the human KDR enzyme; GST; made in house; host or cells: SF21 insect cells (baculovirus)
T4 sequence (P35968 786-1356 limits assumed): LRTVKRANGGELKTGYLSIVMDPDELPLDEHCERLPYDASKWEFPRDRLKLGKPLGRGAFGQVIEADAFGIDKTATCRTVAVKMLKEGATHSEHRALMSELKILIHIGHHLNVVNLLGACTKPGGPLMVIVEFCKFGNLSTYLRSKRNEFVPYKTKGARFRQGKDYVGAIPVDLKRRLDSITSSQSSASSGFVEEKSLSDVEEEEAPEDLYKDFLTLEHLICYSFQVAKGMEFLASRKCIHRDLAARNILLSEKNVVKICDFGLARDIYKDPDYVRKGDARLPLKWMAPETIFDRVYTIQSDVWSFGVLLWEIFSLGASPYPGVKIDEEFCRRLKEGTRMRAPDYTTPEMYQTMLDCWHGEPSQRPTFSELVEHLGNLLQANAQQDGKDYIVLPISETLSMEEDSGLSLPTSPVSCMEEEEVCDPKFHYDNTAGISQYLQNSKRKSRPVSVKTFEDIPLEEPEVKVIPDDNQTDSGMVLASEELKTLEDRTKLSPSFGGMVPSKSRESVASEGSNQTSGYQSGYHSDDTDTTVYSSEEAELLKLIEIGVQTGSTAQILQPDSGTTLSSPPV
In short: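 Values are percent inhibition relative to the compound-free control, read by scintillation counting of 33P incorporation after EDTA stop. Baculovirus/SF21-expressed GST-KDR cytoplasmic domain (100 ng) acted for 1 h at 37 °C in pH 7.2 MOPS kinase buffer. The substrate was GST-PLCγ SH2-SH3 (2 μg), added with γ33P-ATP and 2 μM unlabeled ATP.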

Structure (SMILES)	melting point	inhibition at 10 µM [1]	inhibition at 10 µM [2]	inhibition at 10 µM [3]	inhibition at 10 µM [4]
CS(=O)(=O)Nc1n[nH]c2ccc(NS(=O)(=O)c3cccc(F)c3)cc12 (hydrate or solvate) [Example 27, 3-Fluoro-N-(3-methylsulfonylamino-1H-indazol-5-yl)benzenesulfonamide]	230 °C	–	–	–	–
O=C(Nc1n[nH]c2ccc(NS(=O)(=O)c3cc(F)cc(F)c3)cc12)c1ccccc1 (hydrate or solvate) [Example 46, N-[5-(3,5-Difluorobenzenesulfonylamino)-1H-indazol-3-yl]benzamide]	246 °C	–	–	–	–
O=S(=O)(Oc1ccc2[nH]ncc2c1)c1cccc(F)c1 (as salt: benzenesulfonate) [Example 17, 1H-Indazol-5-yl 3-fluorobenzenesulfonate]	104 °C	–	–	–	–
CC(=O)Nc1ccccc1-c1n[nH]c2ccc(NS(=O)(=O)c3cccc(F)c3)cc12 (hydrate or solvate) [Example 47, N-{2-[5-(3-Fluorobenzenesulfonylamino)-1H-indazol-3-yl]phenyl}acetamide]	135 °C	–	–	–	–
CS(=O)(=O)c1ccccc1S(=O)(=O)Nc1ccc2[nH]nc(-c3ccccc3N)c2c1 [Example 49, N-[3-(2-Aminophenyl)-1H-indazol-5-yl]-2-methylsulfonylbenzenesulfonamide]	–	50%	40%	17%	18%
CCCCS(=O)(=O)Nc1ccc2[nH]nc(-c3ccccc3)c2c1 [Example 129, N-(3-Phenyl-1H-indazol-5-yl)-butanesulfonamide]	–	30%	46%	64%	58%
CS(=O)(=O)c1ccccc1S(=O)(=O)Nc1ccc2[nH]nc(C#N)c2c1 (hydrate or solvate) [Example 5, N-(3-Cyano-1H-indazol-5-yl)-2-methylsulfonylbenzenesulfonamide]	272 °C	–	–	–	–
CC(=O)Nc1n[nH]c2ccc(NS(=O)(=O)c3cccc(F)c3)cc12 (hydrate or solvate) [Example 28, N-[5-(3-Fluorobenzenesulfonylamino)-1H-indazol-3-yl)acetamide]	246 °C	–	–	–	–
CS(=O)(=O)c1ccccc1S(=O)(=O)Nc1ccc2[nH]nc(-c3cc(F)cc(F)c3)c2c1 [Example 102, N-[3-(3,5-difluorophenyl)-1H-indazol-5-yl]-2-methylsulfonylbenzenesulfonamide]	–	74%	90%	96%	77%
CS(=O)(=O)c1ccccc1S(=O)(=O)Nc1ccc2[nH]nc(-c3ccc(C(=O)O)cc3)c2c1 [Example 69, 4-[5-(2-Methylsulfonylbenzenesulfonamino)-1H-indazol-3-yl]benzoic acid]	–	61%	98%	99%	73%
O=S(=O)(Nc1ccc2[nH]nc(-c3ccccc3)c2c1)c1cccc2cccnc12 [Example 111, N-(3-Phenyl-1H-indazol-5-yl)quinoline-8-sulfonamide]	–	99%	66%	100%	83%
CS(=O)(=O)c1ccccc1S(=O)(=O)Nc1ccc2[nH]nc(-c3ccc(C(=O)O)cc3)c2c1 (hydrate or solvate) [Example 69, 4-[5-(2-Methylsulfonylbenzenesulfonamino)-1H-indazol-3-yl]benzoic acid]	199 °C	–	–	–	–
CN(C)c1c(F)c(F)c(S(=O)(=O)Nc2ccc3[nH]nc(-c4cc5ccccc5[nH]4)c3c2)c(F)c1F [Example 86, 4-Dimethylamino-2,3,5,6-tetrafluoro-N-[3-(1H-indol-2-yl)-1H-indazol-5-yl]benzenesulfonamide]	–	53%	40%	86%	85%
CS(=O)(=O)c1ccccc1S(=O)(=O)Nc1ccc2[nH]nc(-c3cc4cccnc4[nH]3)c2c1 [Example 57, 2-Methylsulfonyl-N-[3-(1H-pyrrolo[2,3-b]pyridin-2-yl)-1H-indazol-5-yl]benzenesulfonamide]	–	0%	48%	53%	22%
CS(=O)(=O)c1ccccc1S(=O)(=O)Nc1ccc2[nH]nc(-c3ccc4[nH]ccc4c3)c2c1 [Example 104, N-[3-(1H-indol-5-yl)-1H-indazol-5-yl]-2-methylsulfonylbenzenesulfonamide]	–	73%	85%	97%	75%

Next, values leading:

melting point	inhibition at 10 µM [1]	inhibition at 10 µM [2]	inhibition at 10 µM [3]	inhibition at 10 µM [4]	Structure (SMILES)
–	16%	55%	67%	34%	CS(=O)(=O)c1ccccc1S(=O)(=O)Nc1ccc2[nH]nc(-c3ccc(OCc4ccccc4)cc3)c2c1 [Example 209, N-[3-(4-Benzyloxyphenyl)-1H-indazol-5-yl]-2-methanesulfonyl-benzenesulfonamide]
–	27%	51%	49%	12%	CS(=O)(=O)c1ccccc1S(=O)(=O)Nc1ccc2[nH]nc(-c3cc(Cl)ccc3Cl)c2c1 [Example 225, N-[3-(2,5-Dichlorophenyl)-1H-indazol-5-yl]-2-methanesulfonyl-benzenesulfonamide]
–	84%	92%	94%	71%	CSc1ccc(-c2n[nH]c3ccc(NS(=O)(=O)c4ccccc4S(C)(=O)=O)cc23)cc1 [Example 172, 2-Methanesulfonyl-N-[3-(4-methylsulfanylphenyl)-1H-indazol-5-yl]-benzenesulfonamide]
–	41%	44%	58%	39%	CS(=O)(=O)c1ccccc1S(=O)(=O)Nc1ccc2[nH]nc(-c3ccc(OCc4ccccc4)c(F)c3)c2c1 [Example 194, N-[3-(4-Benzyloxy-3-fluoro-phenyl)-1H-indazol-5-yl]-2-methanesulfonyl-benzenesulfonamide]
–	66%	90%	86%	42%	CS(=O)(=O)c1ccccc1S(=O)(=O)Nc1ccc2[nH]nc(-c3ccc(Cl)c(Cl)c3)c2c1 [Example 205, N-[3-(3,4-Dichlorophenyl)-1H-indazol-5-yl]-2-methanesulfonyl-benzenesulfonamide]
–	24%	55%	82%	50%	CC(C)c1ccc(-c2n[nH]c3ccc(NS(=O)(=O)c4ccccc4S(C)(=O)=O)cc23)cc1 [Example 201, N-[3-(4-Isopropylphenyl)-1H-indazol-5-yl]-2-methanesulfonyl-benzenesulfonamide]
–	78%	97%	95%	67%	Cc1ccc(-c2n[nH]c3ccc(NS(=O)(=O)c4ccccc4S(C)(=O)=O)cc23)cc1N [Example 204, N-[3-(3-Amino-4-methyl-phenyl)-1H-indazol-5-yl]-2-methanesulfonyl-benzenesulfonamide]
–	66%	90%	91%	71%	Cc1ccc(-c2n[nH]c3ccc(NS(=O)(=O)c4ccccc4S(C)(=O)=O)cc23)cc1 [Example 164, 2-Methanesulfonyl-N-(3-p-tolyl-1H-indazol-5-yl)-benzenesulfonamide]
–	21%	60%	67%	56%	COc1ccc(-c2n[nH]c3ccc(NS(=O)(=O)c4ccccc4S(C)(=O)=O)cc23)c(OC)c1OC [Example 214, 2-Methanesulfonyl-N-[3-(2,3,4-trimethoxyphenyl)-1H-indazol-5-yl]-benzenesulfonamide]
